Data from article PMC6451765 (Journal of biomolecular structure & dynamics, 2013).
pKi: −log10 of the molar value.

Molecular target: 5-HT2B (Homo sapiens, UniProt P41595)
Format: binding

Sequence of 5-HT2B (P41595 whole entry): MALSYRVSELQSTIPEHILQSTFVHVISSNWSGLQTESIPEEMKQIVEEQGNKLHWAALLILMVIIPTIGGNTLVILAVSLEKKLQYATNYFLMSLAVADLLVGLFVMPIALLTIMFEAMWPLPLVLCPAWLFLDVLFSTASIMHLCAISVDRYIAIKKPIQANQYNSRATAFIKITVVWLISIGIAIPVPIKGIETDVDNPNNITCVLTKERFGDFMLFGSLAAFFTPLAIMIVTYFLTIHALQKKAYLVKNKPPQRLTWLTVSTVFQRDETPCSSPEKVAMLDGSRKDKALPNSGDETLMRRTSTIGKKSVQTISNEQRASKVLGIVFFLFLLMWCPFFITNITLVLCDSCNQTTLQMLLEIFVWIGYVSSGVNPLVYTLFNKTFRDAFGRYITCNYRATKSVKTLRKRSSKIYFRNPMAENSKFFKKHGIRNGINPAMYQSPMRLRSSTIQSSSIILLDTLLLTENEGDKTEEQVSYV

| SMILES | pKi |
| --- | --- |
| CC(C)c1cccc(C(C)C)c1O [P, propofol] | 6.02 |
| FC(F)OC(Cl)C(F)(F)F (centres unmarked) [I, isoflurane] | 5.11 |
